Patent US20240415807A1, “AGENT FOR PREVENTING OR AMELIORATING PRURITUS” (KAO CORPORATION, priority 2021, published 2024)

Key:
C3a receptor = target: T1, C3a receptor (Homo sapiens, UniProt Q16581); assay: Ca2+-flux assay of C3a receptor antagonism in transfected HEK293 cells; format: cell-based; conditions: antagonist 10 nM, mouse TLQP-21 1 μM, 15 minutes preincubation, HEK293 with C3a receptor and GNA16 vectors, vs control; FIG. 6
T1 sequence (Q16581 1-482): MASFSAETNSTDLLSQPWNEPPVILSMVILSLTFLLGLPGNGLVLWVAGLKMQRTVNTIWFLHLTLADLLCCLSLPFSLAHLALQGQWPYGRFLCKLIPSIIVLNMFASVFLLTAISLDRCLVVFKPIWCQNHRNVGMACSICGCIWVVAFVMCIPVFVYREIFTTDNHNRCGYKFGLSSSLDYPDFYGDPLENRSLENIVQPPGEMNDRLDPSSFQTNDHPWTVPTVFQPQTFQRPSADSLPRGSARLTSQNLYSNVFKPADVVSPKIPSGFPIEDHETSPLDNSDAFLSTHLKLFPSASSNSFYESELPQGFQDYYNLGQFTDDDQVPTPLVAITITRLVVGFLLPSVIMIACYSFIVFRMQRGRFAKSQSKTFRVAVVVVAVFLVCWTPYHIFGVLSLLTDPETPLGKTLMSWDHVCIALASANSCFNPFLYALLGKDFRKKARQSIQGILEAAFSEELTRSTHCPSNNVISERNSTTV
Experimental: In the following evaluation, Compound 1 and Compound 2 were dissolved in DMSO and diluted with HBSS as appropriate.
Human Embryonic Kidney cells 293 (HEK293) were used, transfected with the expression vectors necessary for evaluation according to the following.
A transfection solution was prepared by sequentially adding C3a receptor expression vector, GNA16 expression vector, and PEI-MAX (PolyScience) solution to serum-free DMEM medium, mixing well, and then allowing it to stand at room temperature for 20 minutes. […]
The cells for evaluating C3a receptor response described above were seeded in a 96-well Black Polystyrene Microplate (Thermo fisher scientific) precoated with Poly-L-Ornithine Solution (FUJIFILM Wako Pure Chemical). […] After 15 minutes, a mouse TLQP-21 solution was added for C3a receptor stimulation, and the Ca^2+ influx associated with the stimulation was measured over time as intracellular fluorescence intensity (Ex: 494 nm, Em: 525 nm). The value obtained by subtracting the measured value when HBSS was added instead of mouse TLQP-21 solution (blank) was used as the measured value. The C3a receptor antagonist solution and mouse TLQP-21 solution were added after adjusting their concentrations by appropriately diluting them so that their final concentrations when measuring fluorescence intensity were 10 nM and 1 μM, respectively. […]

[1] = test system: AEW model mice (C57BL/6J); assay: Amelioration of pruritus in AEW model mice (scratching behavior, MicroAct); format: in vivo, mouse; conditions: 200 μL subcutaneous, 0.5 mg/mL Compound 1 or 0.05 mg/mL Compound 2, once daily for 8 days; measured 3 hours; vs solvent alone; FIG. 8
Source text: The animals used were male C57BL/6J mice.
Preparation of AEW model: The back of the neck was shaved, and absorbent cotton soaked with a 1:1 (v/v) mixture of acetone and diethyl ether was applied and allowed to stand for 15 seconds. Immediately thereafter, absorbent cotton soaked with water was applied for 30 seconds. This treatment was repeated twice/day (morning and evening) for 7 days.
(§1) Compound 1 or Compound 2, whose C3a receptor antagonism was confirmed in Example 4 above, was used as a C3a receptor antagonist. Compound 1 or Compound 2 was dissolved in saline containing 20% polyethylene glycol 400, of which 200 μL was administered subcutaneously to the back of the neck. The control group was administered with the same amount of only the above solvent. The concentration of the C3a receptor antagonist solution was set at 0.5 mg/mL for Compound 1 and 0.05 mg/mL for Compound 2. Sample administration started after the first AEW treatment and was performed at a frequency of once daily for 8 days.
Sixteen hours after the last AEW treatment, the scratching behavior was measured for 3 hours after the last administration of the sample. MicroAct (Neuroscience) was used to measure the scratching behavior.

[2] = test system: AD model mice (NC/Nga, mite allergen-induced); assay: Amelioration of pruritus in AD model mice (scratching behavior, MicroAct); format: in vivo, mouse; conditions: 200 μL subcutaneous, 0.5 mg/mL Compound 1 or 0.05 mg/mL Compound 2, three times a week; measured 3 hours; vs solvent alone; FIG. 7
Experimental: Seven-week-old female NC/Nga mice were used. Preparation of AD model mice: The back of the neck was shaved, and 100 mg of an ointment containing mite allergen: Biostir AD (Biostir Inc.) was applied to the back of the neck and auricular region under isoflurane anesthesia for initial sensitization. Four days after the first application of the ointment containing mite allergen, 150 μL of 4% (w/v) SDS solution and 100 mg of ointment containing mite allergen were applied to the back of the neck and auricular region under isoflurane anesthesia. Thereafter, the same procedure was performed four times at a frequency of once every 3 to 4 days to induce AD-like dermatitis.
as §1, with “Sample administration started after the first AEW treatment and was performed at a frequency of once daily for 8 days.” left out
Four days after the last application of the ointment containing mite allergen, the scratching behavior was measured for 3 hours after the last administration of the sample. […]

With `N=C(N)NCCC[C@H](NC(=O)c1ccc(C(c2ccccc2)c2ccccc2)s1)C(=O)O` [Compound 1, L-arginine, N2-[[5-(diphenylmethyl)-2-thienyl]carbonyl]] the “Fluorescence intensity due to C3a receptor stimulation by TLQP-21 (integrated over 3 min)” value (C3a receptor) was “greatly suppressed”, the “Scratching behavior in AEW model mice” value [1] was “significant decrease in scratching behavior” and the “Scratching behavior in AD model mice” value [2] was “significant decrease in scratching behavior”.

For `Cc1cc(C(c2ccc(Cl)cc2)c2ccc(Cl)cc2)sc1C(=O)N[C@@H](CCCNC(=N)N)C(=O)O` [Compound 2, L-arginine, N2-[[5-[bis(4-chlorophenyl)methyl]-3-methyl-2-thienyl]carbonyl]], the “Fluorescence intensity due to C3a receptor stimulation by TLQP-21 (integrated over 3 min)” value (C3a receptor) was “greatly suppressed”, the “Scratching behavior in AEW model mice” value [1] was “significant decrease in scratching behavior” and the “Scratching behavior in AD model mice” value [2] was “significant decrease in scratching behavior”.
